This experiment has as its system Store Operated Calcium Entry (SOCE) in BV-2 cells. Put plainly: Fluo-4 fluorimetric assay of tBHQ-induced store operated calcium entry in BV-2 cells. The experiment is classed as cell-based, mouse. To be noted: Mus musculus, 10 μM, SOCE inhibition based on tBHQ-induced calcium influx. The protocol:
(A) BV-2 cells were plated in poly-d-lysine coated 24-well plate and incubated overnight. After 24 hours, cells were loaded with 2 μM Fluo-4 and placed in an extracellular solution containing 0 mM Ca^2+. Stores were depleted with 50 μM tBHQ and calcium influx was stimulated by the addition of 2 mM Ca^2+ alone (Ctrl), or in conbination with: compound with no activity (NM-3A), and compounds that positively (4-(1-(4-(3,5-bis(trifluoromethyl)-1H-pyrazol-1-yl)phenyl)-1H-1,2,3-triazol-4-yl)benzoic acid) and negatively (3-(1-(4-(4-(ethoxycarbonyl)-5-(trifluoromethyl)-1H-pyrazol-1-yl)phenyl)-1H-1,2,3-triazol-4-yl)benzoic acid) regulate SOCE. Calcium responses are expressed as changes in fluorescence intensity before and after the addition of selected modulators. (B) BV-2 cells were assayed for a calcium response to different concentrations of 3-(1-(4-(4-(ethoxycarbonyl)-5-(trifluoromethyl)-1H-pyrazol-1-yl)phenyl)-1H-1,2,3-triazol-4-yl)benzoic acid and 4-(1-(4-(3,5-bis(trifluoromethyl)-1H-pyrazol-1-yl)phenyl)-1H-1,2,3-triazol-4-yl)benzoic acid (0.1-0.3-1-3-10-30-100 μM) using Fluo-4 fluorimetric assay. Concentration-response curves represent the AUC % of both compounds as compared to positive control.
Immortalized primary mouse microglial BV-2 cells were obtained from ATCC (ATCC® CRL-2540™, Rockville, Md., USA) and were cultured in Dulbecco's Modified Eagle's Medium (DMEM; Sigma-Aldrich, Italy), supplemented with 10% heat-inactivated FBS (Gibco, Italy), 1-glutamine 50 mg/mL (Sigma-Aldrich, Italy), penicillin 10 U/mL and streptomycin […] (Sigma-Aldrich, Italy) at 37° C., under a 5% CO2 humidified atmosphere. For experiments, the cells were plated 2×10^4 per ml in 24 well plates) or onto glass coverslips at concentrations of 4×10^4 per mL (24 mm diame-ter coverslips in 6 well plates).
BV-2 cells were loaded with 5 μM Fluo-4 AM in presence of 0.02% of Pluronic-127 (both from Life Technologies, Italy) and 10 μM sulfinpyrazone in Krebs-Ringer buffer (KRB, 135 mM NaCl, 5 mM KCl, 0.4 mM KH2PO4, 1 mM MgSO4, 5.5 mM glucose, 20 mM HEPES, pH 7.4) containing 2 mM CaCl2 (30 min, room temperature). Subsequently, cells were washed and incubated with KRB for other 30 min to allow de-esterification of Fluo-4 AM. Experiments were carried out prior to and during exposure of the cells to the Ca^2+-free solution. In the absence of Ca^2+, the intracellular Ca^2+ stores were depleted by 2,5-t-butylhydroquinone (tBHQ, 50 μM; Sigma-Aldrich, Italy), a SERCA poison, and then calcium 2 mM was re-added to the extracellular solution. Fluorescence is then monitored sequentially for a second in each well for 600 seconds with excitation at 494 nm and an emission wavelength at 516 nm on the V3 Victor plate-reader (Perkin Elmer), generating time-curves for each well. Data were analysed using Microsoft Excel and GraphPad Prism.
The percentage of SOCE inhibition for each compound was determined based on value of tBHQ-induced calcium influx into BV-2 cells (Table 2).

The structures appear in SMILES notation.

For `CCOC(=O)c1cnn(-c2ccc(-n3cc(-c4ccccc4NC(C)=O)nn3)cc2)c1C(F)(F)F` [ethyl 1-(4-(4-(2-acetamidophenyl)-1H-1,2,3-triazol-1-yl)phenyl)-5-(trifluoromethyl)-1H-pyrazole-4-carboxylate], the inhibition (in general, the change of the read-out against control, counted positive when it falls) at 10 µM is 28%. With `CCOC(=O)c1cnn(-c2ccc(-n3cc(-c4cccc(C(N)=O)c4)nn3)cc2)c1C(F)(F)F` [ethyl 1-(4-(4-(3-carbamoylphenyl)-1H-1,2,3-triazol-1-yl)phenyl)-5-(trifluoromethyl)-1H-pyrazole-4-carboxylate], the inhibition at 10 µM was found to be 2.27%.

Take `CCOC(=O)c1cnn(-c2ccc(-c3cn(-c4ccc(OC)c(OC)c4)nn3)cc2)c1C(F)(F)F` [ethyl 1-(4-(1-(3,4-dimethoxyphenyl)-1H-1,2,3-triazol-4-yl)phenyl)-5-(trifluoromethyl)-1H-pyrazole-4-carboxylate]: the inhibition at 10 µM was 12.8%. For `CCOC(=O)c1cnn(-c2ccc(-n3cc(-c4ccc(OC)cc4)nn3)cc2)c1C(F)(F)F` [ethyl 1-(4-(4-(4-methoxyphenyl)-1H-1,2,3-triazol-1-yl)phenyl)-5-(trifluoromethyl)-1H-pyrazole-4-carboxylate], the inhibition at 10 µM is 4.77%. On to `CCOC(=O)c1cnn(-c2ccc(-c3cn(-c4cccc(N)c4)nn3)cc2)c1C(F)(F)F` [ethyl 1-(4-(1-(3-aminophenyl)-1H-1,2,3-triazol-4-yl)phenyl)-5-(trifluoromethyl)-1H-pyrazole-4-carboxylate], for which the inhibition at 10 µM is 23%. Regarding `CCOC(=O)c1cnn(-c2ccc(-n3cc(-c4cccc(C(=O)OC)c4)nn3)cc2)c1C(F)(F)F` [ethyl 1-(4-(4-(3-(methoxycarbonyl)phenyl)-1H-1,2,3-triazol-1-yl)phenyl)-5-(trifluoromethyl)-1H-pyrazole-4-carboxylate], the inhibition at 10 µM amounted to 21.8%. `CCOC(=O)c1cnn(-c2ccc(-c3cn(-c4ccncc4)nn3)cc2)c1C(F)(F)F` [ethyl 1-(4-(1-(pyridin-4-yl)-1H-1,2,3-triazol-4-yl)phenyl)-5-(trifluoromethyl)-1H-pyrazole-4-carboxylate]: the inhibition at 10 µM came to 20%.

For the compound `O=C(O)CCCn1cc(-c2ccc(-n3nc(C(F)(F)F)cc3C(F)(F)F)cc2)nn1` [4-(4-(4-(3,5-bis(trifluoromethyl)-1H-pyrazol-1-yl)phenyl)-1H-1,2,3-triazol-1-yl)butanoic acid], the inhibition at 10 µM was 18.3%. For `CCOC(=O)c1cnn(-c2ccc(-n3cc(-c4ccc(N)cc4)nn3)cc2)c1C(F)(F)F` [ethyl 1-(4-(4-(4-aminophenyl)-1H-1,2,3-triazol-1-yl)phenyl)-5-(trifluoromethyl)-1H-pyrazole-4-carboxylate], the inhibition at 10 µM is 8.31%. `CCOC(=O)c1cnn(-c2ccc(-n3cc(-c4ccc(OC)c(OC)c4)nn3)cc2)c1C(F)(F)F` [ethyl 1-(4-(4-(3,4-dimethoxyphenyl)-1H-1,2,3-triazol-1-yl)phenyl)-5-(trifluoromethyl)-1H-pyrazole-4-carboxylate]: the inhibition at 10 µM was 17.2%. `COc1ccc(-n2cc(-c3ccc(-n4nc(C(F)(F)F)cc4C(F)(F)F)cc3)nn2)cc1OC` [4-(4-(3,5-bis(trifluoromethyl)-1H-pyrazol-1-yl)phenyl)-1-(3,4-dimethoxyphenyl)-1H-1,2,3-triazole]: the inhibition at 10 µM is 5.7%. As to `CCOC(=O)c1cnn(-c2ccc(-c3cn(-c4ccc(OC)cc4)nn3)cc2)c1C(F)(F)F` [ethyl 1-(4-(1-(4-methoxyphenyl)-1H-1,2,3-triazol-4-yl)phenyl)-5-(trifluoromethyl)-1H-pyrazole-4-carboxylate], the inhibition at 10 µM was 16.9%. For the compound `FC(F)(F)c1cc(C(F)(F)F)n(-c2ccc(-n3cc(-c4ccccc4)nn3)cc2)n1` [1-(4-(3,5-bis(trifluoromethyl)-1H-pyrazol-1-yl)phenyl)-4-phenyl-1H-1,2,3-triazole], the inhibition at 10 µM is 0.84%. `CCOC(=O)c1cnn(-c2ccc(-n3cc(-c4cccc(N)c4)nn3)cc2)c1C(F)(F)F` [ethyl 1-(4-(4-(3-aminophenyl)-1H-1,2,3-triazol-1-yl)phenyl)-5-(trifluoromethyl)-1H-pyrazole-4-carboxylate]: the inhibition at 10 µM amounted to 24.8%. On to `Oc1cccc(-c2cn(-c3ccc(-n4nc(C(F)(F)F)cc4C(F)(F)F)cc3)nn2)c1` [3-(1-(4-(3,5-bis(trifluoromethyl)-1H-pyrazol-1-yl)phenyl)-1H-1,2,3-triazol-4-yl)phenol], for which the inhibition at 10 µM was 4.06%.

On to `O=C(O)CCCc1cn(-c2ccc(-n3nc(C(F)(F)F)cc3C(F)(F)F)cc2)nn1` [4-(1-(4-(3,5-bis(trifluoromethyl)-1H-pyrazol-1-yl)phenyl)-1H-1,2,3-triazol-4-yl)butanoic acid], for which the inhibition at 10 µM worked out at 19.9%.

With `CCOC(=O)c1cnn(-c2ccc(-n3cc(-c4cccc(O)c4)nn3)cc2)c1C(F)(F)F` [ethyl 1-(4-(4-(3-hydroxyphenyl)-1H-1,2,3-triazol-1-yl)phenyl)-5-(trifluoromethyl)-1H-pyrazole-4-carboxylate], the inhibition at 10 µM came to 3.53%. Consider `COc1ccc(-n2cc(-c3ccc(-n4nc(C(F)(F)F)cc4C(F)(F)F)cc3)nn2)cc1` [4-(4-(3,5-bis(trifluoromethyl)-1H-pyrazol-1-yl)phenyl)-1-(4-methoxyphenyl)-1H-1,2,3-triazole], for which the inhibition at 10 µM turned out to be 21.3%. For the compound `CCOC(=O)c1cnn(-c2ccc(-n3cc(-c4ccccc4)nn3)cc2)c1C(F)(F)F` [ethyl 1-(4-(4-phenyl-1H-1,2,3-triazol-1-yl)phenyl)-5-(trifluoromethyl)-1H-pyrazole-4-carboxylate], the inhibition at 10 µM turned out to be 14.3%.

With `CCOC(=O)c1cnn(-c2ccc(-c3cn(-c4ccc(C(=O)O)cc4)nn3)cc2)c1C(F)(F)F` [4-(4-(4-(4-(ethoxycarbonyl)-5-(trifluoromethyl)-1H-pyrazol-1-yl)phenyl)-1H-1,2,3-triazol-1-yl)benzoic acid], the inhibition at 10 µM amounted to 19.8%. Turning to `CCOC(=O)c1cnn(-c2ccc(-c3cn(-c4cccnc4)nn3)cc2)c1C(F)(F)F` [ethyl 1-(4-(1-(pyridin-3-yl)-1H-1,2,3-triazol-4-yl)phenyl)-5-(trifluoromethyl)-1H-pyrazole-4-carboxylate], the inhibition at 10 µM turned out to be 37.4%. Regarding `CCCC(C)OC(=O)c1cnn(-c2ccc(-n3cc(-c4cccc(C(=O)O)c4)nn3)cc2)c1C(F)(F)F` (stereo not shown) [3-(1-(4-(4-((pentan-2-yloxy)carbonyl)-5-(trifluoromethyl)-1H-pyrazol-1-yl)phenyl)-1H-1,2,3-triazol-4-yl)benzoic acid], the inhibition at 10 µM turned out to be 91.9%.

These data come from US10519138B2, “Modulators of SOCE, compositions, and uses thereof” (Università degli Studi del Piemonte Orientale “Amedeo …, priority 2016, dated 2019).
